# Patent US20120208776A1 (priority 2002, published 2012)
# Values joined by “and” are separate entries in the source; they are usually repeats but may differ in a detail not shown here. Identical values can stand only once. Like-named read-outs stand apart in the source and are kept apart here.
# What was measured:
# MDA-MB-453 cells = assay: Western-blot analysis; format: cell-based, human; details: for increase in level of p-Src: serum-starved MDA-MB-453, 80 μg/ml, 30 min; for IκB band intensity relative to β-actin / IκκB band intensity relative to β-actin / PPAR-γ band intensity relative to β-actin / p-Her2 level (WB) / cyclin D1 band intensity relative to β-actin: MDA-MB-453
# Procedure: (§1) Cells were treated for increasing times with approximately the IC50 concentration, or twice the IC50 concentration, of actein. The cells were harvested, washed with PBS, and sonicated in extraction buffer according to the procedure of Han et al. (Han et al., Stable overexpression of cyclin D1 in a human mammary epithelial cell line prolongs the S-phase, and inhibits growth. Oncogene, 10:953-61, 1995). The lysates were subjected to electrophoresis on a 10% or 12.5% SDS-polyacrylamide gel, and then transferred to a polyvinylidene difluoride (PVDF) membrane. The membrane was blocked with milk protein, and incubated with a solution containing the primary antibody against the following: cyclin D1 (Upstate Biotechnology, Lake Placid, N.Y.), p21^cip1 (Oncogene Research Products, Darmstadt, Germany), ppRb (ser 780, Medical and Biological Laboratories, Nagoya, Japan), cdk4 (Upstate Biotechnology, Lake Placid, N.Y.), EGFR (clone-74, Transduction Laboratories, Lexington, Ky.), p-EGFR (phospho (Y1173)-EGFR) (Cell Signaling, Beverly, Mass.), actin (Sigma, St. Louis, Mo.), Her-2/neu (Cell Signaling, Beverly, Mass.), or phospho-(Y1248)-Her-2/neu (Cell Signaling, Beverly, Mass.)), IκB (Sant Cruz Biotechnolgy, Santa Cruz, Calif.), IκκB (Sigma, St. Louis, Mo.) and PPARγ (Santa Cruz biotechnology, Santa Cruz, Calif.) (Masuda et al., Epigallocatechin-3-gallate inhibits activation of HER-2/neu and downstream signaling pathways in human head and neck and breast carcinoma cells. Clin. Cancer Res., 9: 3486-91, 2003). The membrane was washed, and incubated with horseradish peroxidase conjugated secondary antibody.
# (§2) Protein bands were visualized with the ECL-enhanced chemiluminescence system, according to the manufacturer's directions (Amersham Pharmacia Biotech) (Sgambato et al., Overexpression of p27 (Kip1) inhibits the growth of both normal and transformed human mammary epithelial cells. Cancer Research, 58:3448-54, 1998). The staining intensities of the visualized blots were quantified using NIH image software. For each protein, the relative band intensities were determined by comparing treated samples with untreated controls. These values were then normalized, using β-actin as an internal control.
# Western blot analysis. […] To assay activation of p-Src, cells were allowed to attach for 24 h, incubated in media without serum for 24 h; the medium was replaced with media without serum with DMSO, actein or digtioxin.
# Western blot analysis was performed as previously described. […] The membrane was incubated with the primary antibodies, cyclin D1 (Santa Cruz Biotechnology; Santa Cruz, Calif.), p-Src, Akt, p-Akt, ERK2 or p-Erk2 (Cell signaling, Beverly, Mass.); β-actin was used as a loading control.
# Western blot analysis was performed as described previously.
# [1] = system: MCF10F normal mammary epithelial cells; assay: Cell proliferation, cell count (Coulter Counter); format: cell-based, human; details: 96 h
# [2] = Pharmacokinetic analysis of actein in serum and urine (HPLC-MS); format: in vivo; details: female, Sprague-Dawley, rat, oral, rats, 35.7 mg/kg
# Procedure: In this study two groups of 8 female rats were each treated with: 1) 35.7 mg/kg of actein, and 2) 1/5 this dose, 7.14 mg/kg, by gastric intubation. A control group of 8 female rats was treated by gastric intubation with 1 cc of water. Afresh solution of actein, suspended in water, was prepared just before the treatment.
# Blood and urine collection: To determine the serum concentration of actein at different times during 24 hours, blood was sequentially collected from 4 animals of the group treated with 35.7 mg/kg actein at intervals of 0, 5, 15, 30, 60 minutes and 2, 4, 6, 8 and 24 hours after the administration of actein. For the 24 hour period, animals were starved with free access to water. Blood samples (0.5 ml) were collected through contusion of the retrobulbar plexus with a siliconated glass Pasteur pipette after anaesthetization with ethyl ether. Immediately after sacrifice, blood was drawn from the portal vein with a sterile syringe into vials without anticlotting agents. Ten minutes after each sampling (the time necessary for the formation of the clot), blood was centrifuged at 1500 g for 10 minutes, then serum was stored in cryogenic screw cap vials at −70° C. […]
# HPLC-MS analysis was performed, in duplicate, by Chromadex to determine the presence and quantity of actein in serum and urine samples from Sprague-Dawley rats treated with 35.7 mg/kg actein. […]
# [3] = system: cyclin D1 and p21 mRNA in MDA-MB-453 cells; assay: RT-PCR of mRNA; format: cell-based, human
# MCF7 cells = assay: Western-blot analysis; format: cell-based, human
# Procedure: as §1, §2
smiles,measurement,setting,value
C[C@H]1O[C@@H](O[C@H]2[C@@H](O)C[C@H](O[C@H]3[C@@H](O)C[C@H](O[C@H]4CC[C@@]5(C)[C@H](CC[C@@H]6[C@@H]5CC[C@]5(C)[C@@H](C7=CC(=O)OC7)CC[C@]65O)C4)O[C@@H]3C)O[C@@H]2C)C[C@H](O)[C@@H]1O [digitoxin],increase in level of p-Src,MDA-MB-453 cells,1.5 fold
CC(=O)O[C@@H]1C[C@@]23C[C@@]24CC[C@H](O[C@@H]2OC[C@@H](O)[C@H](O)[C@H]2O)C(C)(C)[C@@H]4CC[C@H]3[C@]2(C)C[C@@H]3O[C@]4(C[C@@H](C)[C@@H]3[C@@]12C)O[C@H](O)[C@@]1(C)O[C@@H]41 [actein],IκB band intensity relative to β-actin,"MDA-MB-453 cells; 3 h, 20 μg/ml",1.2 fold
same,IκκB band intensity relative to β-actin,"MDA-MB-453 cells; 3 h, 20 μg/ml",1.79 fold
same,PPAR-γ band intensity relative to β-actin,"MDA-MB-453 cells; 3 h, 20 μg/ml",1.39 fold
same,p-Her2 level (WB),"MDA-MB-453 cells; 3 h, 20 μg/ml",0.71 fold
same,IκB band intensity relative to β-actin,"MDA-MB-453 cells; 3 h, 40 μg/ml",1.09 fold
same,IκκB band intensity relative to β-actin,"MDA-MB-453 cells; 3 h, 40 μg/ml",1.78 fold
same,PPAR-γ band intensity relative to β-actin,"MDA-MB-453 cells; 3 h, 40 μg/ml",0.93 fold and 0.92 fold
same,cyclin D1 band intensity relative to β-actin,"MDA-MB-453 cells; 3 h, 40 μg/ml",0.93 fold
same,p-Her2 level (WB),"MDA-MB-453 cells; 3 h, 40 μg/ml",0.86 fold
same,IκκB band intensity relative to β-actin,"MDA-MB-453 cells; 10 h, 20 μg/ml",0.48 fold
same,IκκB band intensity relative to β-actin,"MDA-MB-453 cells; 10 h, 40 μg/ml",0.59 fold
same,IκB band intensity relative to β-actin,"MDA-MB-453 cells; 24 h, 20 μg/ml",0.81 fold
same,IκκB band intensity relative to β-actin,"MDA-MB-453 cells; 24 h, 20 μg/ml",1.06 fold
same,PPAR-γ band intensity relative to β-actin,"MDA-MB-453 cells; 24 h, 20 μg/ml",1.3 fold
same,cyclin D1 band intensity relative to β-actin,"MDA-MB-453 cells; 24 h, 20 μg/ml",1.3 fold
same,p-Her2 level (WB),"MDA-MB-453 cells; 24 h, 20 μg/ml",0.81 fold
same,IκB band intensity relative to β-actin,"MDA-MB-453 cells; 24 h, 40 μg/ml",0.53 fold
same,IκκB band intensity relative to β-actin,"MDA-MB-453 cells; 24 h, 40 μg/ml",0.95 fold
same,PPAR-γ band intensity relative to β-actin,"MDA-MB-453 cells; 24 h, 40 μg/ml",0.67 fold
same,cyclin D1 band intensity relative to β-actin,"MDA-MB-453 cells; 24 h, 40 μg/ml",0.44 fold
same,p-Her2 level (WB),"MDA-MB-453 cells; 24 h, 40 μg/ml",0.53 fold
same,increase in level of p-Src,MDA-MB-453 cells,1.5 fold
same,IC50,"[1]; Homo sapiens, MCF-10F, MCF10F cells",42 µg/mL
same,cells alive,"[1]; MCF10F, 20 μg/ml",63.8%±1.4
same,concentration at 24 h,"[2]; serum, 24 hours, read-out: level of actein in serum",102 ng/mL
same,concentration at 24 h,"[2]; urine, 24 h, read-out: level of actein in urine",777 ng/mL
same,p21 mRNA (RT-PCR),"[3]; 3 h, 20 μg/ml",0.92 fold
same,p21 mRNA (RT-PCR),"[3]; 3 h, 40 μg/ml",1.03 fold
same,p21 mRNA (RT-PCR),"[3]; 10 h, 20 μg/ml",1.06 fold
same,p21 mRNA (RT-PCR),"[3]; 10 h, 40 μg/ml",1.19 fold
same,p21 mRNA (RT-PCR),"[3]; 24 h, 20 μg/ml",0.92 fold
same,p21 mRNA (RT-PCR),"[3]; 24 h, 40 μg/ml",1.46 fold
same,cellular level of cyclin D1,"MCF7 cells; 40 μg/ml, 24 h",almost a complete loss
same,level of EGFR,MCF7 cells; 20 or 40 μg/ml,not significantly affected
same,p21cip1 band intensity relative to β-actin,"MCF7 cells; 3 h, 20 μg/ml",1.47 fold
same,ppRb band intensity relative to β-actin,"MCF7 cells; 3 h, 20 μg/ml",1.51 fold
same,p21cip1 band intensity relative to β-actin,"MCF7 cells; 3 h, 40 μg/ml",1.17 fold and 1 fold
same,ppRb band intensity relative to β-actin,"MCF7 cells; 3 h, 40 μg/ml",1.59 fold
same,p21cip1 band intensity relative to β-actin,"MCF7 cells; 10 h, 20 μg/ml",1.75 fold
same,ppRb band intensity relative to β-actin,"MCF7 cells; 10 h, 20 μg/ml",0.61 fold
same,p21cip1 band intensity relative to β-actin,"MCF7 cells; 10 h, 40 μg/ml",1.37 fold
same,ppRb band intensity relative to β-actin,"MCF7 cells; 10 h, 40 μg/ml",0.64 fold
same,p21cip1 band intensity relative to β-actin,"MCF7 cells; 24 h, 20 μg/ml",0.94 fold
same,ppRb band intensity relative to β-actin,"MCF7 cells; 24 h, 20 μg/ml",0.80 fold and 0.8 fold
same,p21cip1 band intensity relative to β-actin,"MCF7 cells; 24 h, 40 μg/ml",0.78 fold
same,ppRb band intensity relative to β-actin,"MCF7 cells; 24 h, 40 μg/ml",0.43 fold
